Consider 20 molecules from patent US9102669B2, “Substituted piperidinyl-pyridazinyl derivatives useful as SCD 1 inhibitors” (Janssen Pharmaceutica NV, priority 2011, dated 2015).

Several values for one entry are separate records, joined by “and”; a condition that tells them apart may be missing. Equal entries are not always repeated.

The target of experiment [1] is SCD1 (Rattus norvegicus (Rat), UniProt P07308). Nature of the experiment: SCD1 enzymatic assay in rat liver microsomes (RLM). Format: biochemical. The conditions noted are these: rat liver microsomes; for inhibition at 1 µM / % Inh.@ 1 μM: 1 μM test compound; for inhibition at 1 µM: read-out: % Inh.@ 1 μM. As to the method: Step 1: Preparation of Rat Liver Microsome (RLM):
Sprague Dawley rats from Charles River (200-225 g) underwent 2-cycle of fast-re-feeding (24-hour fast followed by 24-hour feeding with fat-free high carbohydrate diet, Reseach Diet, D00042802). The livers were removed and homogenized 1:4 (w/v) with pre-chilled, homogenizing buffer (10 mM Tris-HCl, 0.25 M sucrose, 1 mM EDTA, pH 7.4, supplemented with protease inhibitor cocktail). The homogenate was spun at 12,000×g for 15 min at 4° C. The supernatant was then re-centrifuged at 100,000×g for 60 min at 4° C. The pellet was re-suspended in 2 ml pre-chilled […] potassium phosphate buffer, pH 7.2, 10 mM EDTA at a concentration of 20 mg/ml. The resulting rat liver microsome (RLM) preparation was stored at −80° C.
Step 2: SCD1 Enzymatic Assay in RLM:
The SCD1 enzymatic assay was done in a volume of 50 μL using 10 μg of RLM (prepared as described above) in a 96-well polypropylene plate (enzyme reaction buffer contains 0.1 M K-Phosphate Buffer, 10 mM ATP, 6 mM MgCl2. 1 mM CoA, 1 mM β-NADH, 1.6 mM L-glutathione, 20 μM Stearoyl-CoA). Stearoyl-[9,10-^3H]-CoA (ARC-0390, 1 mCi/mL, 60 Ci/mmol,) was added at a final concentration of 2 μCi/mL. Test compound was then added to the reaction mixture at the selected concentration. After incubation at room temperature for 2 hours, 5 μL 1 N HCl was added to stop the reaction, followed by addition of 25 μL of 10% charcoal. The reaction mixture was then transferred to 96-well Multiscreen plate (Millipore, Cat#MSFCN6B50). […] The measured cpm values were fitted with Sigmoidal dose-response curve fit with Graphpad Prism.

The target of experiment [2] is SCD1 (Homo sapiens (Human), UniProt O00767). Briefly: SCD1 13C-palmitic acid assay in A431 cells. It counts as cell-based. Conditions: read-out: A431 cells 13C-PA IC50. Here is the method: Human epithelial carcinoma A431 cells were seeded at 100,000 cells/well in complete growth medium (DMEM, Cellgro#10-013-CM, 4.5 g/L glucose, 10% FBS) in the presence of 0.05 mg/mL human insulin (Hannas Pharmaceutical Supply Co Inc, Humanlin 100 U/ml, 4 mg/ml) in 96-well tissue culture plate. 24 hr later, the cells were washed extensively with Assay Buffer (DMEM, Cellgro#10-013-CM, 4.5 g/L glucose, supplemented with 0.05 mg/mL Human Insulin and 0.1% Fatty Acid Free BSA). […] The cells were then returned to the tissue culture incubator (37° C. and 5% CO2) for 4 hrs. At the end of incubation, the cells were washed three times with 200 μL/well Hanks buffer (HBSS) and then stored at −20° C. until extraction.
Chain of SCD1 (Homo sapiens (Human), UniProt O00767) (O00767 whole entry): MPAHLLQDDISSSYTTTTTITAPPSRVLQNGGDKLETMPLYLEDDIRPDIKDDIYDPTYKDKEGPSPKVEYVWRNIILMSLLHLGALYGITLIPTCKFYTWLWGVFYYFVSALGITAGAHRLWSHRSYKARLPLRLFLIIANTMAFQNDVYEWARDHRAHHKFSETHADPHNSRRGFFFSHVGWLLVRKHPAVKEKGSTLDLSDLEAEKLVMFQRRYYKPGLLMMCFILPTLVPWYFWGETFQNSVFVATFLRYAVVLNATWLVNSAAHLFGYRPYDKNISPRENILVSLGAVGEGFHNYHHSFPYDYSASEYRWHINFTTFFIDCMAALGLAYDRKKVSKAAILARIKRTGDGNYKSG
For fatty acid extraction, after thawing out the plates, 40 μL of 1N KOH (containing 5 μM of internal standard 7,7,8,8-D4 palmitate) was added to each well and cell plates were incubated at 37° C. for 30 minutes. […] Acetonitrile (100 μL) was then added to extract fatty acids, followed by centrifugation at 3000 rpm for 10 minutes. 75 μL of extract was then transferred to a new glass vial in a 96-well cluster plate. 5 μL was injected for LC/MS analysis for detection of ^13C-palmitic acid and ^13C-palmitoleic acid. Formation of product ^13C-palmitoleic acid was determined as an index of SCD1 activity.
LC/MS analysis was performed as following. An Agilent 1100 Liquid Chromatographic System (Palo Alto, Calif.) consisting of a binary pump, a degasser and an autosampler was used. Separation of free fatty acids was performed on a Zorbax SB-C8 column (2.1×50 mm, particle size=3.5 μm). An isocratic elution was carried out with 10 mM triethylamine acetate in water: acetonitrile (3:7) at a flow rate of 0.3 mL/min. The column temperature was set at 30° C. and the sample injection volume was 5 μL. The LC run cycle was 4 min. A Micromass triple-quadrupole Quattro Micro mass […] (Waters, Beverly, Mass.) was interfaced with the LC system through a Z-spray electrospray ion source and was operated in the negative ion mode. Nitrogen was used as nebulizing gas, desolvation gas and cone curtain gas and argon was chosen as collision gas. The triple quadrupole MS source parameters were set as follows: capillary voltage, 3200V; cone voltage, 25V; exctractor 2V; source temperature, 120° C.; desolvation temperature, 300° C.; cone gas flow, 50 L/h; and desolvation gas flow, 700 L/h. […] MassLynx software version 4.0 was used for system control and data processing. The signal of U-^13C-palmitoleic acid was normalized to an internal standard.

Chain of SCD1 (Rattus norvegicus (Rat), UniProt P07308) (P07308 whole entry): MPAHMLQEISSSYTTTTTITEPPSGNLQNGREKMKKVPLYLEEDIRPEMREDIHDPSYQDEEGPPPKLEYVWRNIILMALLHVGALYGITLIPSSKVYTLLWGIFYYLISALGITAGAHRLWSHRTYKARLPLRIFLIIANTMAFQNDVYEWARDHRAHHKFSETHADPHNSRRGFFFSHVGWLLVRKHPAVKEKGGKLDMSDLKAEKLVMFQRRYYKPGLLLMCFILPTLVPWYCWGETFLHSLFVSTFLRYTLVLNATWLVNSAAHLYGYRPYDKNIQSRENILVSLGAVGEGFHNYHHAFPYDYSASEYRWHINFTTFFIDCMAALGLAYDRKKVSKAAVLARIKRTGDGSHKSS

Regarding `CCn1cc(-c2ccc(N3CCC(N4CCc5ccc(F)cc54)CC3)nn2)cn1` [Compound #21, 1-(1-(6-(1-ethyl-1H-pyrazol-4-yl)pyridazin-3-yl)piperidin-4-yl)-6-fluoroindoline], the inhibition at 1 µM on SCD1 [1] came out at 94%. Moreover, the IC50 against SCD1 [1] was 0.017 µM; at SCD1 [2], 0.04 µM and 0.019 µM.
Turning to `Fc1ccc2c(c1)N(C1CCN(c3ccc(-c4ccc(C(F)(F)F)cc4)nn3)CC1)CC2` [Compound #54, 6-fluoro-1-(1-(6-(4-(trifluoromethyl)phenyl)pyridazin-3-yl)piperidin-4-yl)indoline], on SCD1 [1], the inhibition at 1 µM worked out at 85% and the IC50 was determined as 0.09 µM. For the same molecule, at SCD1 [2], the 50% inhibitory concentration (IC50) is 0.054 µM.
For `Cc1ccc2c(c1)N(C1CCN(c3ccc(-c4cnn(C)c4)nn3)CC1)CC2` [Compound #57, 6-methyl-1-(1-(6-(1-methyl-1H-pyrazol-4-yl)pyridazin-3-yl)piperidin-4-yl)indoline] the same measures were 72%, 0.286 µM and 0.241 µM.
For `Cn1cc(-c2ccc(N3CCC(n4ncc5c(F)cccc54)CC3)nn2)cn1` [compound 70, 4-fluoro-1-(1-(6-(1-methyl-1H-pyrazol-4-yl)pyridazin-3-yl)piperidin-4-yl)-1H-indazole], in that order: 94%, 0.068 µM and 0.082 µM.
For `NC(=O)Cn1cc(-c2ccc(N3CCC(N4CCc5ccc(F)cc54)CC3)nn2)cn1` [compound 69, 2-(4-(6-(4-(6-fluoroindolin-1-yl)piperidin-1-yl)pyridazin-3-yl)-1H-pyrazol-1-yl)acetamide] the same measures were 68%, 0.387 µM and 0.559 µM.
As to `Cc1cnc(-c2ccc(N3CCC(N4CCc5ccc(F)cc54)CC3)nn2)s1` [Compound #31, 2-(6-(4-(6-fluoroindolin-1-yl)piperidin-1-yl)pyridazin-3-yl)-5-methylthiazole], on SCD1 [1], the inhibition at 1 µM amounted to 97% and the IC50 came to 0.031 µM. On SCD1 [2], the IC50 was 0.004 µM and 0.019 µM.
For `Cc1cc(-c2ccc(N3CCC(c4noc5ccc(F)cc45)CC3)nn2)ccn1` [compound 25, 5-fluoro-3-(1-(6-(2-methylpyridin-4-yl)pyridazin-3-yl)piperidin-4-yl)benzo[d]isoxazole], on SCD1 [1], the inhibition at 1 µM is 62% and the IC50 worked out at 0.171 µM. Moreover, the half-maximal inhibitory concentration (IC50) at SCD1 [2] turned out to be 0.017 µM.
For `COCc1cnn(-c2ccc(N3CCC(c4noc5ccc(F)cc45)CC3)nn2)c1` [compound 96, 5-fluoro-3-(1-(6-(4-(methoxymethyl)-1H-pyrazol-1-yl)pyridazin-3-yl)piperidin-4-yl)benzo[d]isoxazole] the same measures were 98%, 0.008 µM and 0.022 µM.
For `OCc1cnn(-c2ccc(N3CCC(c4noc5ccc(F)cc45)CC3)nn2)c1` [compound 95, (1-(6-(4-(5-fluorobenzo[d]isoxazol-3-yl)piperidin-1-yl)pyridazin-3-yl)-1H-pyrazol-4-yl)methanol], in that order: 88%, 0.096 µM and 0.062 µM.
On to `Cc1ccc(-c2ccc(N3CCC(c4noc5ccc(F)cc45)CC3)nn2)cn1` [compound 24, 5-fluoro-3-(1-(6-(6-methylpyridin-3-yl)pyridazin-3-yl)piperidin-4-yl)benzo[d]isoxazote], for which, on SCD1 [1], the “% Inh.@ 1 μM” value is on record as 94%; the inhibition at 1 µM stood at 98%; the IC50 is 0.011 µM and 0.004 µM. Further, the IC50 at SCD1 [2] was 0.009 µM and 0.006 µM.
Take `Cc1cnn(-c2ccc(N3CCC(c4noc5ccc(F)cc45)CC3)nn2)c1` [compound 94, 5-fluoro-3-(1-(6-(4-methyl-1H-pyrazol-1-yl)pyridazin-3-yl)piperidin-4-yl)benzo[d]isoxazote]: the inhibition at 1 µM at SCD1 [1] turned out to be 96%. In addition, the values for the IC50 against SCD1 [1] and at SCD1 [2] were 0.012 µM and 0.04 µM, respectively.
For `CC(=O)Nc1ccc(-c2ccc(N3CCC(N4CCc5ccc(F)cc54)CC3)nn2)cn1` [compound 45, N-(5-(6-(4-(6-fluoroindolin-1-yl)piperidin-1-yl)pyridazin-3-yl)pyridin-2-yl)acetamide] the same measures were 98%, 0.015 µM and 0.006 µM.
For `COc1ncc(-c2ccc(N3CCC(N4CCc5ccc(F)cc54)CC3)nn2)cn1` [compound 38, 6-fluoro-1-(1-(6-(2-methoxypyrimidin-5-yl)pyridazin-3-yl)piperidin-4-yl)indoline] the same measures were 97%, 0.011 µM and 0.034 µM.
For `Cn1cc(-c2ccc(N3CCC(N4CCc5cc(F)ccc54)CC3)nn2)cn1` [Compound #46, 5-fluoro-1-(1-(6-(1-methyl-1H-pyrazol-4-yl)pyridazin-3-yl)piperidin-4-yl)indoline], in that order: 85%, 0.165 µM and 0.099 µM.
With `CN(C)c1ccc(-c2ccc(N3CCC(N4CCc5ccc(F)cc54)CC3)nn2)cn1` [Compound #44, 5-(6-(4-(6-fluoroindolin-1-yl)piperidin-1-yl)pyridazin-3-yl)-N,N-dimethylpyridin-2-amine], at SCD1 [1], the “% Inh.@ 1 μM” value is 97%; the inhibition at 1 µM was 92%; the IC50 is 0.02 µM and 0.014 µM. Also, the IC50 at SCD1 [2] is 0.032 µM and 0.028 µM.
As for `Cc1cnn(-c2ccc(N3CCC(N4CCc5ccc(F)cc54)CC3)nn2)c1` [Compound #16, 6-fluoro-1-(1-(6-(4-methyl-1H-pyrazol-1-yl)pyridazin-3-yl)piperidin-4-yl)indoline], on SCD1 [1], the inhibition at 1 µM amounted to 100% and the IC50 came out at 0.021 µM. In addition, the IC50 on SCD1 [2] is 0.023 µM.
For `Cn1cc(-c2ccc(N3CCC(n4ncc5c(C(F)(F)F)cccc54)CC3)nn2)cn1` [compound 80, 1-(1-(6-(1-methyl-1H-pyrazol-4-yl)pyridazin-3-yl)piperidin-4-yl)-4-(trifluoromethyl)-1H-indazole] the same measures were 74%, 0.052 µM and 0.731 µM.
For the molecule `Cc1ccc(-c2ccc(N3CCC(N4CCc5ccc(F)cc54)CC3)nn2)cc1` [Compound #36, 6-fluoro-1-(1-(6-(p-tolyl)pyridazin-3-yl)piperidin-4-yl)indoline], at SCD1 [1], the inhibition at 1 µM is 92% and 0.079 µM corresponded to half-maximal inhibition (IC50). In addition, the IC50 on SCD1 [2] is 0.003 µM and 0.018 µM.
Turning to `Cn1cc(-c2ccc(N3CCC(n4ncc5ccccc54)CC3)nn2)cn1` [compound 40, 1-(1-(6-(1-methyl-1H-pyrazol-4-yl)pyridazin-3-yl)piperidin-4-yl)-1H-indazole], the inhibition at 1 µM on SCD1 [1] was 92%. Also, the IC50 against SCD1 [1] was found to be 0.092 µM; at SCD1 [2] it was 0.045 µM.
For `CNC(=O)c1ccc(-c2ccc(N3CCC(N4CCc5ccc(F)cc54)CC3)nn2)cn1` [Compound #42, 5-(6-(4-(6-fluoroindolin-1-yl)piperidin-1-yl)pyridazin-3-yl)-N-methylpicolinamide] the same measures were 71%, 0.035 µM and 0.006 µM.
